Measured values published in EP2308983B1, “Cytochrome P450 from Rhizopus oryzae and uses thereof” (Univerza v Ljubljani, priority 2009, dated 2011).

How the values were obtained:
CYP509C12 [1] = assay: Steroid hydroxylation assay of recombinant S. pombe strain SpoC12 expressing CYP509C12 (whole-cell biotransformation, HPLC and LC/MS); details: for efficiency of total steroid hydroxylation: 28 °C
Protocol: S. pombe cells, grown as described in the previous section, were washed with EMM, centrifuged (4000 × g, 5 min, 4 °C) and suspended in 10 mL of fresh medium to a final density of 10^8 cells mL^-1. […] 500 µL of SpoC12 yeast culture was taken after different time periods and the steroids were extracted twice with chloroform, evaporated, solved in acetonitrile, and analyzed by HPLC. The steroid extracts from whole cell cultures growing for 24 h were analyzed by LC/MS.
Reverse phase HPLC using an isocratic solvent system of acetonitrile:H2O 60:40 (v/v) as mobile phase, flow rate […], was carried out on a WellChrom system (Knauer, Berlin, Germany) composed of an auto-sampler AS-2050 plus, Mini-Star K-500 pump, Jet Stream II Plus thermostat, and an UV-detector WellChrom Spectro Photometer K-2600, equipped with a C18 ODS Hypersil 250 x 4.6 mm, 5 µm particle column from Thermo® (Waltham, MA, USA). Steroids were detected at 240 nm and the peak area calculation was done using the EuroChrom 2000 software (Knauer). Steroid standards were used to identify the HPLC peaks and to construct calibration curves. Concentrations of steroids were determined using calibration curves in the range of 0.05 -1 mg mL^-1 of each analyte. […] The peak area of a specific steroid at each time point was assessed relative to the total area of identified steroid peaks.
Mass measurements were run on a hybrid quadruple time of flight mass spectrometer (Q-TOF) provided with an orthogonal Z-spray ESI interface (Waters Micromass, Manchester, UK). Mass spectrometer was interfaced to an ultra performance liquid chromatography (UPLC) system based on a Waters Acquity (Waters, Milford, USA) binary pump with a BEH C-18 column (1.7 µm, 50 mm x 2.1 mm i.d.). The mobile phases consisted of water and acetonitrile with mixture of 0.1 % of formic acid in water. Compressed nitrogen (99.999 %, Messer, Slovenia) was used as both the drying and the nebulizing gas. The nebulizer gas flow rate was set to approximately 20 L h^-1 and the desolvation gas flow rate to 600 L h^-1. A cone voltage of 30 V and a capillary voltage of 2.7 kV were used in positive ion mode. The desolvation temperature was set to 250 °C and the source temperature to 150 °C. The mass resolution of approximately 9500 was used for determination of elemental composition with TOF mass spectrometer. Full width of the peak was measured at half of its maximum height. MS were acquired in centroid mode over an m/z range of 50-1000 in scan time 0.25 s and inter scan time 0.05 s. The data station operating software was Mass Lynx v 4.1 (Micromass, Manchester).

CYP509C10 = details: 300 µM progesterone, up-regulated within 20 minutes, Wilcoxon's test p value < 0.05
Protocol: (§1) Samples of 2 µg of RNA were treated with DNAse 1 and reverse-transcribed with random hexamer primers using RevertAid™ H Minus First Strand cDNA Synthesis Kit (Fermentas, Canada) following the manufacturer's instructions. Based on multiple alignments of deduced P450 families, the amplification of the cDNA of 31 P450 genes was carried out under conventional conditions using gene-specific primers which were designed with Primer Express (Applied Biosystems, CA, USA, (AB)). The specificity of each primer pair was verified by sequencing of amplified genomic fragments (Sequiserve, Vaterstetten, Germany).
(§2) Quantitative RT PCR using SYBR green Mastermix (AB) was performed for 9 selected genes in an ABI Prism 7500 Real Time System (AB) according to the manufacturer's instructions. Following amplification, a dissociation curve was performed on all PCR products to additionally ensure their specificity. The relative quantity of cDNA was calculated with the standard curve method and calibrated with a R. oryzae housekeeping Rossb1 gene (Broad ref. RO3G_01864.1), a homologue of the Saccharomyces cerevisiae ribosome-associated Hsp70 (SSB1), whose expression is not affected by steroid treatment. The expression levels of each P450 gene were normalized to those in the untreated control. The statistical significance of up- or down-regulation was evaluated using Wilcoxon's test with a cutoff p-value < 0.05.

CYP509C12 [2] = assay: Real time RT PCR of P450 gene expression in fungus exposed to progesterone; type: cell-based, R. oryzae; details: 300 µM progesterone, up-regulated within 20 minutes, Wilcoxon's test p value < 0.05
Protocol: as §1, §2

CYP5204A1 = assay: as above; type: cell-based, R. oryzae; details: 300 µM progesterone, up-regulated within 20 minutes, Wilcoxon's test p value < 0.05
Protocol: as §1, §2

[3] = SpoC12, 300 µM steroid, 24 h, LC/MS

C[C@]12CC[C@H]3[C@@H](CCC4=CC(=O)CC[C@@]43C)[C@@H]1CC[C@@H]2C(=O)CO [DOC, 11-deoxycorticosterone]
efficiency of total steroid hydroxylation (CYP509C12 [1]; [3]): 96%

CC(=O)[C@H]1CC[C@H]2[C@@H]3CCC4=CC(=O)CC[C@]4(C)[C@H]3CC[C@]12C [progesterone]
transcript amount increase compared to the control (CYP509C10): at least 32 fold | transcript amount increase compared to the control (CYP509C12 [2]): at least 32 fold | transcript amount increase compared to the control (CYP5204A1): at least 32 fold | slower rate of progesterone hydroxylation in recombinant fission yeast compared to R. oryzae cultures (CYP509C12 [1]; SpoC12 versus R. oryzae cultures): 10 fold

C[C@]12CCC(=O)C=C1CC[C@@H]1[C@@H]2CC[C@@]2(C)[C@H]1CC[C@]2(O)C(=O)CO [RSS, 11-deoxycortisol]
efficiency of total steroid hydroxylation (CYP509C12 [1]; [3]): 30% | share of 6β-hydroxylated derivative in total hydroxylated products (CYP509C12 [1]; [3]): more than half

C[C@]12CC[C@H]3[C@@H](CCC4=CC(=O)CC[C@@]43C)[C@@H]1CC[C@@H]2O [testosterone]
efficiency of total steroid hydroxylation (CYP509C12 [1]; [3]): 73%
